This note sets out measurements from patent US10005768B2, “Carboxamide derivatives and use thereof” (Purdue Pharma L.P., priority 2013, dated 2018).

Where only a bound is given, the exact number is not on record here.

human Nav1.7, sequence (Q15858 other isoform, or with tags, fused parts or gaps): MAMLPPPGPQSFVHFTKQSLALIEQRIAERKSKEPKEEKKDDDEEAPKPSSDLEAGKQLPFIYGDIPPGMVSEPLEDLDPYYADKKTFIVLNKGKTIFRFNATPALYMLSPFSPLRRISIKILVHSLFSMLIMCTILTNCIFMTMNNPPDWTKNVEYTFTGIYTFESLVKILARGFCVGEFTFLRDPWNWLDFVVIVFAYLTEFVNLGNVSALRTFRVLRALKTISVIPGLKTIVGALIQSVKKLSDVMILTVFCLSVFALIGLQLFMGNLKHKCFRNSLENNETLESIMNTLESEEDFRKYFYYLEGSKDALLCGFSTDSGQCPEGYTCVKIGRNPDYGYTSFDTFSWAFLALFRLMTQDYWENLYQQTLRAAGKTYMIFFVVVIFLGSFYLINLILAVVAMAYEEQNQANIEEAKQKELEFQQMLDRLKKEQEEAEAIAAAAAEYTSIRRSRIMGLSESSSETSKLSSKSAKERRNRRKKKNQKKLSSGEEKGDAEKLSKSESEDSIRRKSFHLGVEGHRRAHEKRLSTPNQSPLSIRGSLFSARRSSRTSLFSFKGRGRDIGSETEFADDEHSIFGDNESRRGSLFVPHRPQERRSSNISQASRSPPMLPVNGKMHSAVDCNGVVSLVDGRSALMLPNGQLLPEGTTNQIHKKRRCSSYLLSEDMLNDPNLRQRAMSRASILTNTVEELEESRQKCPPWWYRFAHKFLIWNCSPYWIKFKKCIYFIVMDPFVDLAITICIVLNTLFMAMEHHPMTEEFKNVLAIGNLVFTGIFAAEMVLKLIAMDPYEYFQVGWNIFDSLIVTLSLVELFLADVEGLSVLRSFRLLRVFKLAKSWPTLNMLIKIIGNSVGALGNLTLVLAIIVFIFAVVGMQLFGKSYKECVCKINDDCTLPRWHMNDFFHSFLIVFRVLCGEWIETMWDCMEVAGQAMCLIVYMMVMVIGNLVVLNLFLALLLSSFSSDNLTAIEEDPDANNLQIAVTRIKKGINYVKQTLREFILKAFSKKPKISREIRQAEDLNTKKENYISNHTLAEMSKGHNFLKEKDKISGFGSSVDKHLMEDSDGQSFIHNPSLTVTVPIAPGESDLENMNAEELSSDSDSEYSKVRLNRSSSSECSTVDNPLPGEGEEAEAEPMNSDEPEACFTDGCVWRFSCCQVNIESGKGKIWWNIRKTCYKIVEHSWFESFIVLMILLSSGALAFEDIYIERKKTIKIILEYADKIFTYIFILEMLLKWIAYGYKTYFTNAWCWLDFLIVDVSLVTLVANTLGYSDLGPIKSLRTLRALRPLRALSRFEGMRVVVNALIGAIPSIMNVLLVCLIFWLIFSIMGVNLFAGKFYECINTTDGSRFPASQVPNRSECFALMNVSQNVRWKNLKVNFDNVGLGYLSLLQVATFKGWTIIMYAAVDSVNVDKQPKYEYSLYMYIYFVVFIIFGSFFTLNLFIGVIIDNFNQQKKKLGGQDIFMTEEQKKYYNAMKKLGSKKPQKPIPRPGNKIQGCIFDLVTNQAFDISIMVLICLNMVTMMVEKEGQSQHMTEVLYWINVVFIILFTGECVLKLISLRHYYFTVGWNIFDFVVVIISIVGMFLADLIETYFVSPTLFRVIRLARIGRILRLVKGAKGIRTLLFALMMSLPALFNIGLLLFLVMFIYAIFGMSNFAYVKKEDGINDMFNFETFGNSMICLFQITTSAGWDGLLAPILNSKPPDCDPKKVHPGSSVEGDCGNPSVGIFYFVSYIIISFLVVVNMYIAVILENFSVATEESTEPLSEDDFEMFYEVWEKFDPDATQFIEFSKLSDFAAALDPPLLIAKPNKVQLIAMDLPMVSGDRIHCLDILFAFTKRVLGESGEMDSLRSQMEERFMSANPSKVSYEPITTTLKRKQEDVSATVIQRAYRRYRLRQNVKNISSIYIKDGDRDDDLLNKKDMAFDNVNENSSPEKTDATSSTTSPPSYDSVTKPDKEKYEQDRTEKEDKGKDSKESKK

This experiment addresses human Nav1.7 (Homo sapiens (Human), UniProt Q15858). Put plainly: FLIPR sodium dye assay (CoroNa Green AM Na+ dye, primary fluorescence assay). The note with it: recombinant Nav1.7/HEK293 cells. In kind it is cell-based. The procedure:
In vitro assays were performed in a recombinant cell line expressing cDNA encoding the alpha subunit (Nav1.7, SCN9a, PN1, NE) of human Nav1.7 (Accession No. NM_002977). The cell line was provided by investigators at Yale University (Cummins et al, J. Neurosci. 18(23): 9607-9619 (1998)). For dominant selection of the Nav1.7-expressing clones, the expression plasmid co-expressed the neomycin resistance gene. The cell line was constructed in the human embryonic kidney cell line, HEK293, under the influence of the CMV […] promoter, and stable clones were selected using limiting dilution cloning and antibiotic selection using the neomycin analogue, G418. Recombinant beta and gamma subunits were not introduced into this cell line. Additional cell lines expressing recombinant Nav1.7 cloned from other species can also be used, alone or in combination with various beta subunits, gamma subunits or chaperones.
Unless otherwise noted, cell culture reagents were purchased from Mediatech of Herndon, Va. The recombinant Nav1.7/HEK293 cells were routinely cultured in growth medium consisting of Dulbecco's […] essential medium containing 10% fetal bovine serum (FBS, Hyclone, Thermo Fisher Scientific, Logan, Utah), 100 U/mL penicillin, 100 μg/mL streptomycin, 2-4 mM L-glutamine, and […] G418. For natural, non-recombinant cell lines, the selective antibiotic was omitted, and additional media formulations can be applied as needed.
The final buffer consisted of 20 mM Hepes, pH 7.3, 1.261 mM CaCl2, 0.493 mM MgCl2, 0.407 mM Mg(SO)4, 5.33 mM KCl, 0.441 mM KH2PO4, 137 mM NaCl, 0.336 mM Na2HPO4 and […] D-glucose (Hanks et al., Proc. Soc. Exp. Biol. Med. 71:196 (1949)), and the simple formulation was typically the basic buffer throughout the assay (i.e., all wash and addition steps).
The fluorescence indicator used in the primary fluorescence assay was the cell permeant version of CoroNa™ Green (Invitrogen, Molecular Probes, Eugene, Oreg.), a dye that emits light in the fluorescence range (Harootunian et al., J. Biol. Chem. 264(32):19458-19467 (1989)). The intensity of this emission, but not the wavelength range, is increased when the dye is exposed to Na^+ ions, which it can bind with partial selectivity. Cells expressing Nav1.7 or other sodium channels were loaded with the CoroNa™ Green dye immediately in advance of the fluorescence assay, and then, after agonist stimulation, the mobilization of Na^+ ions was detected as the Na^+ ions flowed from the extracellular fluid into the cytoplasm through the activated sodium channel pores. The dye was stored in the dark as a lyophilized powder, and then an aliquot was dissolved immediately before the cell loading procedure, according to the instructions of the manufacturer, to a stock concentration of 10 mM in DMSO. It was then diluted in the assay buffer to a 4× concentrated working solution, so that the final concentration of dye in the cell loading buffer was 5 μM.
In the fluorescence assays, two agonists were used in combination, namely 1) veratridine; and 2) the venom from the yellow scorpion, Leiurus quinquestriatus hebraeus. Veratridine is an alkaloid small molecule that facilitates the capture of channel openings by inhibiting inactivation, and the scorpion venom is a natural preparation that includes peptide toxins selective for different subsets of voltage-gated sodium channels. These scorpion toxins inhibit the fast inactivation of their cognate target channels. Stock solutions of the agonists were prepared to 40 mM in DMSO (veratridine) and 1 mg/mL in dH2O (scorpion venom), and then diluted to make a 4× or 2× stock (depending on the particular assay) in assay buffer, the final concentration being 100 μM (veratridine) and 10 μg/mL (scorpion venom). Both of the agonists were purchased from Sigma Aldrich, St. Louis, Mo.
Test compounds were dissolved in DMSO to yield 10 mM stock solutions. […]
Take `N#Cc1ccc(Oc2ccc(-c3cccc(C(N)=O)n3)cc2)c(-c2ccncc2)c1` [compound 15, 6-(4-(4-cyano-2-(pyridin-4-yl)phenoxy)phenyl)picolinamide]: the IC50 (commonly the concentration at which inhibition is half-maximal) amounted to 0.147 ± 0.016 µM.
With `N#Cc1ccc(Oc2ccc(-c3cccc(C(N)=O)n3)cc2)c(-c2cccnc2)c1` [compound 16, 6-(4-(4-cyano-2-(pyridin-3-yl)phenoxy)phenyl)picolinamide] the figure was 0.104 ± 0.02 µM; with `Cn1cccc1-c1cc(C#N)ccc1Oc1ccc(-c2cccc(C(N)=O)n2)cc1` [compound 17, 6-(4-(4-cyano-2-(1-methyl-1H-pyrrol-2-yl)phenoxy)phenyl)-picolinamide], 0.067 ± 0.019 µM.
To `N#Cc1ccc(Oc2ccc(-c3cccc(C(N)=O)n3)cc2)c(-c2ccc(N)cc2)c1` [compound 18, 6-(4-((4′-amino-5-cyano-[1,1′-biphenyl]-2-yl)oxy)phenyl)-picolinamide] belongs 0.426 ± 0.084 µM; to `N#Cc1ccc(Oc2ccc(-c3cccc(C(N)=O)n3)cc2)c(-c2ccsc2)c1` [compound 19, 6-(4-(4-cyano-2-(thiophen-3-yl)phenoxy)phenyl)picolinamide], 0.337 ± 0.006 µM; to `COc1ccc(-c2cc(C#N)ccc2Oc2ccc(-c3cccc(C(N)=O)n3)cc2)cn1` [compound 20, 6-(4-(4-cyano-2-(6-methoxypyridin-3-yl)phenoxy)phenyl)picolinamide], 0.124 ± 0.016 µM.
With `Cn1cc(-c2cc(C#N)ccc2Oc2ccc(-c3cccc(C(N)=O)n3)cc2)cn1` [compound 21, 6-(4-(4-cyano-2-(1-methyl-1H-pyrazol-4-yl)phenoxy)phenyl)-picolinamide] the figure was 0.564 ± 0.035 µM; with `Cn1nccc1-c1cc(C#N)ccc1Oc1ccc(-c2cccc(C(N)=O)n2)cc1` [compound 22, 6-(4-(4-cyano-2-(1-methyl-1H-pyrazol-5-yl)phenoxy)phenyl) picolinamide], 0.285 ± 0.009 µM.
For the molecule `N#Cc1ccc(Oc2ccc(-c3cccc(C(N)=O)n3)cc2)c(-c2ccc(O)nc2)c1` [compound 23, 6-(4-(4-cyano-2-(6-hydroxypyridin-3-yl)phenoxy)phenyl)picolinamide], the IC50 was more than 20 µM.
As to `COc1ncccc1-c1cc(C#N)ccc1Oc1ccc(-c2cccc(C(N)=O)n2)cc1` [compound 24, 6-(4-(4-cyano-2-(2-methoxypyridin-3-yl)phenoxy)phenyl)picolinamide], the IC50 stood at 0.152 ± 0.031 µM.
`N#Cc1ccc(Oc2ccc(-c3cccc(C(N)=O)n3)cc2)cc1-c1ccncc1` [compound 26, 6-(4-(4-cyano-3-(pyridin-4-yl)phenoxy)phenyl)picolinamide]: the IC50 came to 0.054 ± 0.005 µM.
With `N#Cc1ccc(Oc2ccc(-c3cccc(C(N)=O)n3)cc2)cc1-c1cccnc1` [compound 27, 6-(4-(4-cyano-3-(pyridin-3-yl)phenoxy)phenyl)picolinamide] the figure was 0.549 ± 0.085 µM.
Take `NC(=O)c1cccc(-c2ccc(Oc3ccc(C(F)(F)F)cc3-c3ccncc3)cc2)n1` [compound 28, 6-(4-(2-(pyridin-4-yl)-4-(trifluoromethyl)phenoxy)phenyl) picolinamide]: the half-maximal inhibitory concentration (IC50) is 0.101 ± 0.021 µM.
To `NC(=O)c1cccc(-c2ccc(Oc3ccc(C(F)(F)F)cc3-c3cccnc3)cc2)n1` [compound 29, 6-(4-(2-(pyridin-3-yl)-4-(trifluoromethyl)phenoxy)phenyl) picolinamide] belongs 0.117 ± 0.036 µM.
To `NC(=O)c1cccc(-c2ccc(Oc3ccc(C(F)(F)F)cc3CN3CCCC3)cc2)n1` [compound 30, 6-(4-(2-(pyrrolidin-1-ylmethyl)-4-(trifluoromethyl)phenoxy)phenyl) picolinamide] belongs 0.049 ± 0.003 µM.
With `CN(C)CCNCc1cc(C(F)(F)F)ccc1Oc1ccc(-c2cccc(C(N)=O)n2)cc1` [compound 31, 6-(4-(2-(((2-(dimethylamino)ethyl)amino)methyl)-4-(trifluoromethyl)phenoxy)phenyl) picolinamide] the figure was 2.14 ± 0.432 µM; with `NC(=O)c1cccc(-c2ccc(Oc3ccc(C(F)(F)F)cc3CNCCc3ccc(S(N)(=O)=O)cc3)cc2)n1` [compound 32, 6-(4-(2-(((4-sulfamoylphenethyl)-amino)methyl)-4-(trifluoro-methyl)phenoxy)phenyl)picolin-amide], 3.05 ± 0.942 µM.
As to `CN1CCN(Cc2cc(C(F)(F)F)ccc2Oc2ccc(-c3cccc(C(N)=O)n3)cc2)CC1` [compound 33, 6-(4-(2-((4-methylpiperazin-1-yl)methyl)-4-(trifluoromethyl)-phenoxy)phenyl)picolinamide], the IC50 turned out to be 0.221 ± 0.049 µM.
With `NC(=O)c1cccc(-c2ccc(Oc3ccc(C(F)(F)F)cc3CNCCN3CCNC3=O)cc2)n1` [compound 34, 6-(4-(2-(((2-(2-oxoimidazolidin-1-yl)ethyl)amino)methyl)-4-(trifluoromethyl)phenoxy)phenyl) picolinamide] the figure was 1.77 ± 0.57 µM; with `NC(=O)c1cccc(-c2ccc(Oc3ccc(C(F)(F)F)cc3CN3CCNC(=O)C3)cc2)n1` [compound 35, 6-(4-(2-((3-oxopiperazin-1-yl)methyl)-4-(trifluoromethyl)-phenoxy)phenyl)picolinamide], 0.141 ± 0.022 µM; with `NC(=O)c1cccc(-c2ccc(Oc3ccc(C(F)(F)F)cc3CN3CC[C@H](O)C3)cc2)n1` [compound 36, (S)-6-(4-(2-((3-hydroxypyrrolidin-1-yl)methyl)-4-(trifluoromethyl)-phenoxy)phenyl)picolinamide], 0.432 ± 0.131 µM.
With `CN(C)CCN(C)Cc1cc(C(F)(F)F)ccc1Oc1ccc(-c2cccc(C(N)=O)n2)cc1` [compound 37, 6-(4-(2-(((2-(dimethylamino)-ethyl)(methyl)amino)methyl)-4-(trifluoromethyl)phenoxy)-phenyl)picolinamide] the figure was 1.07 ± 0.117 µM; with `CN(C)CCCNCc1cc(C(F)(F)F)ccc1Oc1ccc(-c2cccc(C(N)=O)n2)cc1` [compound 38, 6-(4-(2-(((3-(dimethylamino)-propyl)amino)methyl)-4-(trifluoromethyl)phenoxy)phenyl) picolinamide], 1.69 ± 0.157 µM; with `CN(C)Cc1cc(C(F)(F)F)ccc1Oc1ccc(-c2cccc(C(N)=O)n2)cc1` [compound 39, 6-(4-(2-((dimethylamino)methyl)-4-(trifluoromethyl)phenoxy)-phenyl)picolinamide], 0.179 ± 0.034 µM.
With `NC(=O)c1cccc(-c2ccc(Oc3ccc(C(F)(F)F)cc3CNCCO)cc2)n1` [compound 40, 6-(4-(2-(((2-hydroxyethyl)-amino)methyl)-4-(trifluoro-methyl)phenoxy)phenyl)picolin-amide] the figure was 1.68 ± 0.177 µM.
As to `NC(=O)c1cccc(-c2ccc(Oc3ccc(C(F)(F)F)cc3CN3CCC[C@H]3CO)cc2)n1` [compound 41, (S)-6-(4-(2-((2-(hydroxyl-methyl)pyrrolidin-1-yl)methyl)-4-(trifluoromethyl)phenoxy)phenyl) picolinamide], the IC50 amounted to 1.13 ± 0.1 µM.
With `NC(=O)c1cccc(-c2ccc(Oc3ccc(C(F)(F)F)cc3CN3CCC[C@@H]3CO)cc2)n1` [compound 42, (R)-6-(4-(2-((2-(hydroxyl-methyl)pyrrolidin-1-yl)methyl)-4-(trifluoromethyl)phenoxy)phenyl) picolinamide] the figure was 1.17 ± 0.186 µM; with `NC(=O)c1cccc(-c2ccc(Oc3ccc(C(F)(F)F)cc3CN3CCOCC3)cc2)n1` [compound 43, 6-(4-(2-(morpholinomethyl)-4-(trifluoromethyl)phenoxy)phenyl) picolinamide], 0.223 ± 0.018 µM.
With `NC(=O)c1cccc(-c2ccc(Oc3ccc(C(F)(F)F)cc3CN3CCC[C@H]3C(N)=O)cc2)n1` [compound 44, (S)-6-(4-(2-((2-carbamoyl-pyrrolidin-1-yl)methyl)-4-(trifluoromethyl)phenoxy)phenyl) picolinamide] the figure was 1.16 ± 0.076 µM.
